Test results from PubChem BioAssay AID1645848.
In brackets after ≈: the same amount, converted by molar mass.

settings: buffer; pH 7.4; 6.0 h; 150.0 µM

| SMILES | solubility kinetic [µg/mL] |
| --- | --- |
| COc1ccc(Cl)cc1NC(=O)c1sc2nc3c(cc2c1N)N1CCC3CC1 | < 1 |
| CCCc1cc(=O)oc2c3c(c4c(c12)OC(C)(C)C=C4)OC(C)C(C)C3O (centres undefined) | < 1 |
| Cc1cc(Oc2ccc(N)cn2)ccc1Cl | > 35 |
| CN(C)c1ccc(-c2cc[nH]c(=O)c2N)cc1 | > 34 |
| NC(=O)C1CCN(c2nccc(-c3ccc(Br)cc3)n2)CC1 | 5.39 (≈ 14.9 µM) |
| O=C1c2ccccc2-n2c1nc1ccccc1c2=O | 8.45 (≈ 34 µM) |
| O=C(c1nc(-c2ccc(Cl)nc2)c2ccccn12)N1CCCC1 | 2.73 (≈ 8.36 µM) |
| CC(=O)c1c(C)[nH]c(C(=O)Nc2cccc([S+](=O)([O-])Nc3ccccc3)c2)c1C | 2.16 (≈ 5.24 µM) |
| O=[N+]([O-])c1ccc(CNc2ccc([S+](=O)([O-])Nc3nccs3)cc2)c(O)c1 | > 60 |
| Cc1ccc(S(=O)(=O)Nc2cnccc2C(=O)NCc2ccccc2)cc1 | > 56 |
| CCOC(=O)c1ccc(NC(=O)N2Cc3[nH]cnc3C[C@H]2c2nc(C(C)C)no2)cc1 | > 63 |
| NC(=O)C1CCN(c2nc(-c3ccc4c(c3)CCO4)cs2)CC1 | > 49 |
| CC(C)NC(=O)N1C[C@@H]2C[C@H](C1)c1ccc(-c3cccc(C(F)(F)F)c3)c(=O)n1C2 | > 93 |
| CCc1ccc(NC(=O)c2[nH]c(C)c(C(C)=O)c2C)cc1S(=O)(=O)Nc1ccc(C#N)cc1 | 2.19 (≈ 4.72 µM) |
| Oc1ccc(CNc2cccc(F)c2F)c2cccnc12 | < 1 |
| CCOC(=O)c1ccc(N2C(=O)c3n[nH]c(-c4cccs4)c3C2c2ccc(OCC)cc2)cc1 (centres undefined) | < 1 |
| Cc1ccnc(NC(=S)N2CCN(c3cccc(C(F)(F)F)c3)C[C@@H]2C)c1 | 3.88 (≈ 9.84 µM) |
| Cc1sc(NC(=O)Cc2ccc3c(c2)OCO3)nc1-c1ccc2c(c1)CCN2C | 1.07 (≈ 2.63 µM) |
| NC1CCN(C(=O)C2CCCN(c3nc(-c4ccccc4)nc4c3CCC4)C2)CC1 (centres undefined) | > 40 |

| SMILES | solubility kinetic [µg/mL] |
| --- | --- |
| O=C(Nc1nc(-c2ccccc2)cs1)c1ccccc1[N+](=O)[O-] | < 1 |
| O=C(Nc1ccc(Cl)c(S(=O)(=O)N2CCOCC2)c1)c1ccc(S(=O)(=O)N2CCCCC2)cc1 | < 1 |
| Cc1ccnc(NC(=S)N2CCN(c3ccc(Cl)c(Cl)c3)CC2)c1 | < 1 |
| CCCc1oc2ccc(NS(=O)(=O)c3ccc(OC)cc3)cc2c1C(=O)OCC | < 1 |
| N#Cc1c(NC(=O)c2cccc3ccccc23)sc2c1CCCC2 | < 1 |
| CNC(=O)c1ccc(C)c(-n2c(C)cc(OCc3ccc(F)cc3F)c(Br)c2=O)c1 | > 100 |
| O=C(Nc1ccc2c(N3CCCCC3)ncnc2c1)c1cc(F)cc(F)c1 | < 1 |
| O=C(Nc1cccc(C(F)(F)F)c1)Nc1cc(S(=O)(=O)NC2CC2)ccc1-c1ccsc1 | < 1 |
| COc1cc2c(cc1OC)C(C[C@H]1CN(S(=O)(=O)c3cccc(C#N)c3)CC[C@H]1CC(=O)O)=NCC2 | > 76 |
| CC(=O)c1c(C)c2cnc(Nc3ccc(N4CCNCC4)cn3)nc2n(C2CCCC2)c1=O | 17.4 (≈ 39 µM) |
| Cc1nc(N)nc2ccccc12 | > 24 |
| CC(C)c1ccccc1-c1ncc(F)c(NCC2CCN(c3cccnc3)CC2)n1 | 9.06 (≈ 22.3 µM) |
| CCCc1nnc(NC(=O)c2nc(S(=O)(=O)Cc3ccc(C)cc3)ncc2Cl)s1 | > 67 |
| CC[C@H]1CN2CCc3cc(OC)c(OC)cc3[C@@H]2C[C@@H]1C[C@H]1NCCc2cc(OC)c(OC)cc21 | > 71 |
| CCOC(=O)c1nn(-c2ccccc2)c(=O)c2c(N)scc12 | 4.02 (≈ 12.7 µM) |
| CC(C)Oc1cccc(-c2ccnc(N3CCC(C(N)=O)CC3)n2)c1 | 8.28 (≈ 24.3 µM) |
| CC1(C)C[C@@H]2C[C@@](C)(CN2S(=O)(=O)c2ccc(C(=O)Nc3ccc(Cl)c(S(=O)(=O)N4CCOCC4)c3)cc2)C1 | < 1 |
| CS(=O)(=O)c1ccc2nc(NC(=O)C3CC3)sc2c1 | 22.7 (≈ 76.7 µM) |
| CC(=O)c1c(C)c(C(=O)Nc2cccc([S+](=O)([O-])N(C)C)c2)n(C)c1C | 33.2 (≈ 88 µM) |

| SMILES | solubility kinetic [µg/mL] |
| --- | --- |
| Cn1cc(Cl)c(C2N=C(Nc3nc4ccccc4o3)NC3=C2C(=O)CCC3)n1 (centres undefined) | 36.4 (≈ 91.7 µM) |
| Nc1ccccc1CNc1ccc(S(=O)(=O)Nc2nccs2)cc1 | > 53 |
| CCS(=O)(=O)N1CC(CC#N)(n2cc(-c3ncnc4[nH]ccc34)cn2)C1 | > 55 |
| O=C1CCCC2=C1C(c1[nH]ncc1Br)N=C(Nc1nc3ccccc3o1)N2 (centres undefined) | < 1 |
| Fc1ccc(Nc2nccc(-c3ccncc3)n2)cc1F | 2.48 (≈ 8.71 µM) |
| Cc1cc(N=Nc2ccc(S(=O)(=O)Nc3ccccn3)cc2)c(N)cc1O | 3.69 (≈ 9.63 µM) |
| O=C1CCc2cc(S(=O)(=O)Nc3ccc(F)c(Cl)c3)ccc2N1 | > 52 |
| Cc1cccc(N2CCN(C(=O)Cn3ncc4c3-c3ccccc3OC4)CC2)c1C | 3.85 (≈ 9.57 µM) |
| Cc1cc(C)nc(NC(=S)N2CCN(c3ccc(Cl)cc3F)CC2)c1 | 3.36 (≈ 8.88 µM) |
| Cc1cccc2oc(NC3=NC(c4[nH]ncc4Cl)C4=C(CCCC4=O)N3)nc12 (centres undefined) | < 1 |
| Cc1cc(-c2ccc(C)c(S(=O)(=O)NCC3CCN(Cc4ccc(F)cc4)CC3)c2)on1 | 40.5 (≈ 88.5 µM) |
| CCC1=Nc2cc(C(=O)NC3CCCC3)ccc2Sc2ccc(Cl)cc21 | < 1 |
| CCOC(=O)C1=C(CN(CC)Cc2ccccc2)NC(=O)NC1c1ccc(OC(C)C)cc1 (centres undefined) | < 1 |
| Cc1cccc(-n2ccc(=O)c(C(=O)Nc3ccc(S(=O)(=O)Nc4nccs4)cc3)n2)c1 | < 1 |
| O=C(c1ccc2c(c1)ncn2-c1ccc(Cl)cc1)N1CCCCC1 | > 50 |
| C#CCNC(=O)c1nc(-c2ccc(Cl)nc2)c2ccccn12 | 2.64 (≈ 8.5 µM) |
| Cn1ccc2cc(-c3csc(N4CCC(C(N)=O)CC4)n3)ccc21 | 32.9 (≈ 96.7 µM) |
| CN1CCN(CCCN2c3ccccc3Sc3ccc(S(=O)(=O)N(C)C)cc32)CC1.CS(=O)(=O)O.CS(=O)(=O)O | > 66 |

Now from value to compound:

| solubility kinetic [µg/mL] | SMILES |
| --- | --- |
| 2.23 (≈ 5.5 µM) | COc1cccc(C(=O)Nc2ccc([S+](=O)([O-])Nc3nccs3)cc2)c1O |
| 0.132 (≈ 0.326 µM) | CC(C)c1ccccc1-c1ncc(F)c(NCc2ccc(-c3cccnc3)s2)n1 |
| > 61 | O=C(O)Cn1c(C(=O)Nc2nc(-c3ccccc3Cl)cs2)cc2ccccc21 |
| 39.5 (≈ 80.2 µM) | Cc1cc(F)ccc1-c1nc(NCCN=C(N)NC#N)nc2c1ccc(=O)n2-c1c(F)cccc1F |
| < 1 | Cc1ccccc1C(=O)N1CCc2cc(-c3csc(NC(=O)Cc4ccc5c(c4)OCO5)n3)ccc21 |
| 28.1 (≈ 71.9 µM) | COCCNC(=O)c1ccc(-c2ncc3cnc(-c4cccc(F)c4)cn23)cc1 |
| < 1 | COc1ccc(CCNc2ncnc3c2c(-c2ccccc2)cn3-c2cccc(Cl)c2)cc1OC |
| < 1 | Cc1ccc(S(=O)(=O)Nc2ccccc2C(=O)Nc2ccc(-c3ccccc3)nn2)cc1 |
| 16.2 (≈ 68.3 µM) | c1ccc(Nc2cc(-c3ccoc3)ncn2)cc1 |
| 5.59 (≈ 12.7 µM) | Cc1ccccc1C(=O)N1CCc2cc(N3CCC(NC(=O)Cc4ccccc4)C3)ccc21 (centres undefined) |
| 3.79 (≈ 11.2 µM) | COc1cc(Cl)c(C)cc1Nc1c2c(nc3ccccc13)CCC2 |
| < 1 | Cc1ccc2nc(-c3ccccn3)c(Nc3ccccc3C)n2c1 |
| < 1 | COc1ccc(-c2ccc3nc(-c4cc(F)ccc4F)oc3c2)c(OC)c1OC |
| < 1 | Fc1cc(Nc2nc(-c3ccncc3)nc3ccccc23)ccc1OCC(F)(F)F |
| < 1 | COc1ccc(-c2cc(-c3ccccc3)nc(SCC(=O)Nc3ccccc3C)c2C#N)cc1 |
| 18.7 (≈ 45.1 µM) | CN1CCN(c2ccc(Nc3nc(-c4ccncc4)nc4ccccc34)cc2F)CC1 |
| < 1 | COc1ccc(C)cc1NC(=O)c1cnc(-c2ccc(F)cc2)nc1-c1ccncc1 |
| > 75 | CCN(CCO)CCCOc1ccc2c(Nc3cc(CC(=O)Nc4cccc(F)c4)[nH]n3)ncnc2c1 |
| < 1 | O=C(Nc1ncc(Cc2ccc(C(F)(F)F)cc2)s1)c1cn(-c2ccccc2)cn1 |
| 34.3 (≈ 74.3 µM) | N#Cc1cccc(S(=O)(=O)Nc2cnccc2C(=O)Nc2nc(-c3ccccc3)cs2)c1 |
| 6.07 (≈ 13 µM) | COc1cccc(CNc2ccc(S(=O)(=O)Nc3ncc(-c4ccccc4)s3)cc2)c1O |
| < 1 | Cc1ccc(S(=O)(=O)Nc2ccccc2C(=O)Nc2cccc(-c3ccccc3)c2)cc1 |

| solubility kinetic [µg/mL] | SMILES |
| --- | --- |
| < 1 | COc1cncc(Nc2ncc(-c3cccc(N(C)C)c3)c3c2OCC3)c1 |
| 36.3 (≈ 97.2 µM) | Cc1cnc(-c2ccccc2C(C)C)nc1NCC1CN(c2cccnc2)C1 |
| < 1 | O=C(Nc1ccc(S(=O)(=O)Nc2ncc(-c3ccccc3)s2)cc1)c1ccc2ccccc2c1 |
| < 1 | COc1ccc(Nc2nc(-c3cccc(OC)c3)no2)cc1 |
| 3.79 (≈ 7.12 µM) | Cc1ccc(-c2cc(C(=O)Nc3ccc(S(=O)(=O)Nc4ccc(C#N)cc4)cc3)c3ccccc3n2)cc1C |
| < 1 | Cc1ccc(S(=O)(=O)Nc2cccc(C(=O)Nc3nc(-c4ccc(Cl)cc4)cs3)c2)cc1 |
| 29.4 (≈ 68.5 µM) | CCN1C(=O)c2ccccc2[S@](=O)c2ccc(C(=O)NCc3ccc(C#N)cc3)cc21 |
| < 1 | O=C(Nc1ccc(Cl)cc1)C(NS(=O)(=O)c1cccs1)c1ccccc1 (centres undefined) |
| < 1 | Fc1cc(Nc2nc(-c3ccncc3)nc3ccccc23)ccc1-c1cncnc1 |
| 45.4 (≈ 126 µM) | COc1ccc(CN2CCNc3cc(Nc4ccccc4)ncc3C2)cc1 |
| < 1 | N#Cc1cccc(Nc2ncc(-c3cccc4ccccc34)o2)c1 |
| < 1 | O=S(=O)(Nc1ccc(-c2ccccc2)cc1)c1ccc(NCc2ccc(Br)cc2O)cc1 |
| 4.37 (≈ 10.3 µM) | CN1C(=O)c2ccccc2[S@](=O)c2ccc(C(=O)NCc3ccc(Cl)cc3)cc21 |
| < 1 | CCOc1ccc(CCNC(=O)c2ccc(C3(C(F)(F)F)N=N3)cc2)cc1OCC |
| < 1 | Oc1ccc(Nc2nc(-c3ccncc3)nc3ccccc23)cc1F |
| 11.9 (≈ 34.1 µM) | O=c1cc(-c2nc(Nc3ccc(F)c(F)c3)c3ccccc3n2)cc[nH]1 |
| < 1 | Fc1cc(-c2nc(Nc3ccc(F)c(F)c3)c3ccccc3n2)ccn1 |
| 1.14 (≈ 2.95 µM) | COc1ccc(C(=O)NC2CCCc3c2[nH]c2c(Cl)cccc32)cc1OC (centres undefined) |
| 32.5 (≈ 73.9 µM) | O=C(NCCCn1ccnc1)c1ccc(-c2ncc3cnc(-c4cccc(F)c4)cn23)cc1 |
| > 58 | COc1cccc(O)c1CNc1ccc(S(=O)(=O)Nc2nccs2)cc1 |
| < 1 | O=C(Cn1c2ncccc2c(=O)n1-c1ccccc1)Nc1ccc(Cl)cc1C(F)(F)F |
